Legend:
PR-B = target: T1, PR-B (Homo sapiens, UniProt P06401); experiment: PR-B transcriptional reporter assay, antagonist mode (HEPG2 cells); format: cell-based; details: 1 nM R5020
T1 construct: cloning full-length human PRb into pCDNA; expressed in transfected cells; host or cells: HEPG2
T1 sequence (P06401 1-933): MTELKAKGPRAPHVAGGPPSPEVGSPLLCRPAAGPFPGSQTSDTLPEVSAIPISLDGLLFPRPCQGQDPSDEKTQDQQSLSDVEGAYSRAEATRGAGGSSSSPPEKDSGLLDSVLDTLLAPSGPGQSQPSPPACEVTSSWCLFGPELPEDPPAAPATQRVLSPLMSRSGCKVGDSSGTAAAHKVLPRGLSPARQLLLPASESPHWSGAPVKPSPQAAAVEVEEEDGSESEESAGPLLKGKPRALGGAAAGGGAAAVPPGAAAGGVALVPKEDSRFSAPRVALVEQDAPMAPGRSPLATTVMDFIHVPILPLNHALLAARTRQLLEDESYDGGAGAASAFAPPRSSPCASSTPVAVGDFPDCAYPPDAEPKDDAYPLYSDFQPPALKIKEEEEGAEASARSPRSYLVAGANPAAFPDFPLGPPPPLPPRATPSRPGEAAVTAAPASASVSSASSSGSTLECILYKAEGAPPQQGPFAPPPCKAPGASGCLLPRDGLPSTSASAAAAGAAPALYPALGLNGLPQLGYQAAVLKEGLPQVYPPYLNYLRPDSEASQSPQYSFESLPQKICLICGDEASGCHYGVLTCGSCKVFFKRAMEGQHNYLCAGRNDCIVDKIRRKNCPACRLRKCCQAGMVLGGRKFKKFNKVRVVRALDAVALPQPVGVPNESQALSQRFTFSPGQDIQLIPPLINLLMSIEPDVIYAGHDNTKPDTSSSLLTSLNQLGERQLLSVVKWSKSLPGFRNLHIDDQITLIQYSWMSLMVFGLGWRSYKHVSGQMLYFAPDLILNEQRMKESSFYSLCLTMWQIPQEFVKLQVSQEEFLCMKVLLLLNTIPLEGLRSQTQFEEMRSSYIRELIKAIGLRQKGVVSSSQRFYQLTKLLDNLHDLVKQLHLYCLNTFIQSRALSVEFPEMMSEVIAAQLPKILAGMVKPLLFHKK

[1] = system: Doxycycline-inducible MCF7 cells over-expressing ER (ER.WT); experiment: Cell viability, doxycycline-inducible ER over-expressing MCF7 cells; format: cell-based; details: Homo sapiens, MCF7, 168 h, 7 days; for IC50: 0.1 nM E2, 10 ng/ml doxycycline; for EC50: estrogen-depleted medium, 10 ng/ml doxycycline, read-out: Cell viability EC50, ER.WT -E2
[2] = system: HCI-003 patient derived xenograft tumors; experiment: HCI-003 patient derived xenograft efficacy; format: in vivo, mice; details: for Tumor growth response, HCI-003 PDX: 1 mg E2 beeswax pellets, GDC-0810 10 and 100 mg/kg/day p.o., fulvestrant 200 mg/kg 3x/week s.c., 43 days
Source text: Like MCF7, HCI-003 tumors are ER+, E2 dependent and tamoxifen sensitive (Figure 4—figure supplement 1C). […] Lack of efficacy in this ER-negative model is consistent with the GDC-0810 mechanism of action being selectively mediated through ER.
The HCI-003 model was established at the University of Utah, Huntsman Cancer Center via direct implantation of both primary tumor material into immune compromised mice ([DeRose et al., 2011]). HCI-003 is wild-type at the ESR1 ligand binding domain. Exogenous estradiol is required for robust growth of this patient derived tumor line, and is supplied in the form of estradiol impregnated beeswax pellets. Tumor fragments obtained from the Huntsman Cancer Center were surgically implanted into the cleared mammary fat pad of 19 day old female NOD.CB17-Prkdc^scid/NcrCrl mice (Charles River Laboratories). The right mammary fat pad of recipient animals was exposed by a 1 cm incision on the ventral mid-line at the level of the fourth mammary. The blood vessels were cauterized and the fat pad blunt dissected from the abdominal wall and skin. Tumor fragments were excised from donor animals, chopped into fragments approximately 8 mm^3 (2 × 2 × 2 mm), implanted in the region of the cleared mammary fat pad, and the incision was closed with wound clips. Estradiol impregnated beeswax pellets were implanted subcutaneously into the interscapular space of recipient animals on the day of tumor implant. Recipient animals were ovariectomized 19 days after tumor fragment implant. One group of animals was designated as a control for estradiol independent tumor growth (Vehicle-E2) and the estradiol impregnated pellets were excised on the first day of dosing. All mice were housed and maintained according to the animal-use guidelines of the Institutional Animal Care and Use Committee (IACUC), conforming to California State legal and ethical practices.

[3] = system: MDA-MB-231, an ER negative human breast cancer tumor model; experiment: MDA-MB-231 xenograft efficacy; format: in vivo, mice; details: GDC-0810 100 mg/kg/day p.o., 29 days
WHIM20 tumors = format: in vivo, mice; details: no E2 pellets; GDC-0810 100 mg/kg/day; tamoxifen 60 mg/kg/day; fulvestrant 50 mg/kg days 1, 3 and 7, 25 mg/kg weekly thereafter; 35 days
Source text: Figure 8. […] (B) Gene expression analysis of WHIM20 tumors after 4 days of dosing, harvested 8 hr after the final dose. […] (E) WHIM20 tumors were implanted in mice without supplemental 17β-estradiol pellets.
The WHIM20 patient derived xenograft model (WHIM20) was established via direct implantation of metastatic tumor material into immune compromised mice at Washington University in St. Louis ([Li et al., 2013]).
Tumors were established from fragments obtained from Washington University by subcutaneous implantation via 10G trocar into the right flank of 6–7 week old female NOD.CB17-Prkdc^scid/NcrCrl mice (Charles River Laboratories) and NOD.Cg-Prkdc^scid Il2rg^tm1Wjl/SzJ mice (Jackson Laboratories). Tumor line was propagated by serial transplantation. Animals were ovariectomized prior to initiation of treatment.

TamR1 tumors = system: TamR1 tumors; set-up: method as in Lai et al., 2015; details: 0.72 mg 60 day release E2 pellets; GDC-0810 p.o. 100 mg/kg/day; fulvestrant SC 200 mg/kg 3x/week; ref Lai et al., 2015; cited from earlier work
ER = system: ER; set-up: method as in Dickler et al., 2015; details: postmenopausal women with ER+ locally advanced or metastatic breast cancer, patients with FES-PET scans; ref Dickler et al., 2015; cited from earlier work
AR = AR (Homo sapiens, UniProt P10275); experiment: AR competitive radioligand binding assay (MDA-MB-453 cell lysate); details: 0.6 nM 3H-R1881
Chain of AR (P10275 whole entry): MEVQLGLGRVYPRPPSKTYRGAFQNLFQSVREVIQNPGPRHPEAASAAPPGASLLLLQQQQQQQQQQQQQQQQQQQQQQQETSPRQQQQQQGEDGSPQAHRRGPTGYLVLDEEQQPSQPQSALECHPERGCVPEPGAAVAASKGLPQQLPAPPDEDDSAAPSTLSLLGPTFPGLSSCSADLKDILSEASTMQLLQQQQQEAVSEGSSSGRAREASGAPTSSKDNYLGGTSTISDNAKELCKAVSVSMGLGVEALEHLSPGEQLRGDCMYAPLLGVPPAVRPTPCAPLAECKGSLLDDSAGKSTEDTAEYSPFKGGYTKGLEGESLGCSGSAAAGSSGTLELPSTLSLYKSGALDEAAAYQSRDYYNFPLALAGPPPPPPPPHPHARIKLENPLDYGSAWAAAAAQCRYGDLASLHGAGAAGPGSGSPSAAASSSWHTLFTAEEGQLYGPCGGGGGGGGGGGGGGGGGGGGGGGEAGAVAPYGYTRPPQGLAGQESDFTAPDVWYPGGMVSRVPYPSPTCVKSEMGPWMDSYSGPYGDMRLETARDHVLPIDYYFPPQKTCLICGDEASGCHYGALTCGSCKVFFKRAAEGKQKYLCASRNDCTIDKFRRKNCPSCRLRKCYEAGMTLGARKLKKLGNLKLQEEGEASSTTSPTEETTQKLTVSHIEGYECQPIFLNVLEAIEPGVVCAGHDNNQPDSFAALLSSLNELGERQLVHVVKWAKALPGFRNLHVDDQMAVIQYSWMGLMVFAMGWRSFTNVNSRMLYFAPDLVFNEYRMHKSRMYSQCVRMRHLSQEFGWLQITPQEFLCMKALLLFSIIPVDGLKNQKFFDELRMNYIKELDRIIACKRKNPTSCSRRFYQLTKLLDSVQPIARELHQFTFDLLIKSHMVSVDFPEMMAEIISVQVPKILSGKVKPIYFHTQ
Protocol: After reaching 90% confluence, cells were harvested, resuspended in TEGM (10 mM TrisHCl pH 7.2, 1 mM EDTA, 10% glycerol, 1 mM β-mercaptoethanol, 10 mM Sodium Molybdate), and frozen in liquid nitrogen in 10 mL aliquots containing 2 × 10^7 cells/mL. […] Reactions were incubated at 4°C overnight. Bound and unbound ligands were separated by ultrafiltration using a Unifilter-96 GF/C filter plate (Perkin Elmer). Bound ^3H-R1881 was eluted in 30 μL/well Microscint-20 and quantified using a scintillation counter (Top Count).

Row | Structure (SMILES) | IC50 (PR-B) | IC50 [1] | EC50 [1] | Tumor growth response, HCI-003 PDX [2] | Tumor growth response, MDA-MB-231 xenograft [3] | Tumor growth response, WHIM20 PDX (WHIM20 tumors) | Tumor growth response, TamR1 xenograft, high E2 (TamR1 tumors) | patients with complete/near complete (>90%) suppression of FES uptake (ER) | IC50 (AR) | Anti-tumor activity, HCI-003 PDX (Figure 4—figure supplement 1C) ([2]; tamoxifen 60 mg/kg/day orally, fulvestrant 200 mg/kg 3x/week, 38 days)
1 | CC/C(=C(\c1ccc(O)cc1)c1ccc(OCCN(C)C)cc1)c1ccccc1 [4-OH Tam, 4-hydroxytamoxifen] | 7160 ± 2150 nM | – | – | – | – | – | – | – | – | –
2 | CC/C(=C(/c1ccc(/C=C/C(=O)O)cc1)c1ccc2[nH]ncc2c1)c1ccc(F)cc1Cl [GDC-0810] | – | 19 nM | 0.8 nM | drove tumor stasis | did not exhibit any anti-tumor activity | induced tumor stasis | induced tumor regressions | 90 % of patients | – | –
3 | C[C@]12CC[C@@H]3c4ccc(O)cc4C[C@@H](CCCCCCCCC[S+]([O-])CCCC(F)(F)C(F)(F)F)[C@H]3[C@@H]1CC[C@@H]2O (stereo partly drawn) [Fulvestrant] | – | 11 nM | 1.2 nM | induced tumor regression | – | tumor growth inhibition | only modest tumor growth inhibition | – | > 4000 nM | display anti-tumor activity
